Source: article PMC6112376, “Comprehensive Analyses and Prioritization of Tox21 10K Chemicals Affecting Mitochondrial Function by in-Depth Mechanistic Studies” (Environmental Health Perspectives, 2018)
Counter-ions that a name gives are not always drawn. Like-named read-outs stand apart in the source and are kept apart here.

Tests used:
[1] = system: HepG2 cells; details: cited from earlier work
[2] = system: rat primary hepatocytes; test: MMP assay in rat primary hepatocytes; details: for IC50: Rattus norvegicus, Hepatocyte, read-out: MMP assays IC50 (µM) Rat Hepatocytes
[3] = system: rat primary hepatocytes
[4] = system: HepG2 cells; test: cells; details: Homo sapiens; for IC50: HepG2, read-out: MMP assays IC50 (µM) HepG2; for Emax: HepG2, read-out: MMP assays efficacy (%) HepG2
[5] = read-out: MMP assays IC50 (µM), qHTS-HepG2
[6] = read-out: MMP assays IC50 (µM) qHTS-HepG2

Row | Compound | MMP assays efficacy (%) qHTS-HepG2 [1] | IC50 [1, 5] | IC50 [2] | MMP assays efficacy (%) Rat Hepatocytes [3] | IC50 [4] | Emax [4] | IC50 [1, 6] | MMP assays IC50 (µM) Rat Hepatocytes [2]
1 | Cc1ccccc1C(=O)Nc1cccc(OC(C)C)c1 [Mepronil] | -73±6% | 40.9 ± 19.2 µM | 56.2 µM | -39±16% | 39.8 µM | 72% | – | –
2 | CC(C)(C)c1cc(O)c(C(C)(C)C)cc1O [2,5-Di-tert-butylbenzene-1,4-diol] | -107±12% | – | 39.1 ± 15.5 µM | -73±5% | 7.94 µM | 98% | 7.41 ± 1.27 µM | –
3 | CC[C@@]1(O)C[C@H](O[C@H]2C[C@H](N(C)C)[C@H](O[C@H]3C[C@H](O)[C@H](O[C@H]4CCC(=O)[C@H](C)O4)[C@H](C)O3)[C@H](C)O2)c2c(cc3c(c2O)C(=O)c2c(O)cccc2C3=O)[C@H]1C(=O)OC [Aclarubicin hydrochloride] | -70±15% | – | 6.89 ± 9.73 µM | -49±12% | 2.45 µM | 39% | 3.15 ± 2.82 µM | –
4 | CCC(C)(C)c1ccc(O)cc1 [4-(2-Methylbutan-2-yl)phenol] | -95±13% | – | – | inactive | 35.5 µM | 96% | 22.7 ± 3.07 µM | inactive
5 | CCCCCc1cc(O)c2c(c1)OC(C)(C)c1ccc(C)cc1-2 [Cannabinol] | -124±7% | – | 21.8 µM | -98±2% | 1.09 µM | 103% | 1.68 µM | –
6 | CN1C(C(=O)Nc2ccccn2)=C(O)c2ccccc2S1(=O)=O [Piroxicam] | -109±18% | 8.21 ± 1.71 µM | 4.79 ± 1.53 µM | -84±3% | 5.88 µM | 103% | – | –
7 | CCc1oc2ccccc2c1C(=O)c1cc(Br)c(O)c(Br)c1 [Benzbromarone] | -138±3% | – | 4.91 ± 1.79 µM | -82±50% | 13.8 µM | 107% | 7.22 ± 1.24 µM | –
8 | CCC/C=C/C=C/C(=O)O[C@H]1/C(=C/C(=O)OC)C[C@H]2C[C@H]([C@@H](C)O)OC(=O)C[C@H](O)C[C@@H]3C[C@H](OC(C)=O)C(C)(C)[C@](O)(C[C@@H]4C/C(=C/C(=O)OC)C[C@H](/C=C/C(C)(C)[C@]1(O)O2)O4)O3 [Bryostatin 1] | -105±21% | – | 0.79 ± 1.07 µM | -46±21% | 0.001 µM | 92% | 0.01 ± 0.01 µM | –
9 | Oc1c(Cl)cc(Cl)cc1Sc1cc(Cl)cc(Cl)c1O [Bithionol] | -97±9% | – | 2.47 ± 1.39 µM | -109±25% | 0.97 µM | 92% | 0.66 ± 0.52 µM | –
10 | C[C@]12CCC(=O)C[C@@H]1CC[C@@H]1[C@@H]2CC[C@]2(C)[C@@H](O)CC[C@@H]12 [Compound 5alpha-Dihydrotestosterone] | -72±9% | – | – | inactive | 17.3 µM | 45% | 13.3 ± 6.16 µM | inactive
11 | Oc1ccc(Cl)c(Cl)c1 [3,4-Dichlorophenol] | -104±7% | – | 53.9 ± 13 µM | -45±32% | 15.8 µM | 114% | 9.18 ± 2.63 µM | –
12 | Oc1cc(Cl)c(Cl)c(Cl)c1Cl [2,3,4,5-Tetrachlorophenol] | -99±11% | – | 11.6 ± 5.42 µM | -76±25% | 7.94 µM | 121% | 4.93 ± 2.04 µM | –
13 | O=c1[nH]sc2ccccc12 [1,2-Benzisothiazolin-3-one] | -81±19% | – | – | inactive | 17.8 µM | 118% | 38.6 ± 13.7 µM | inactive
14 | Brc1ccc(Oc2cc(Br)c(Br)cc2Br)c(Br)c1 [2,2',4,4',5-Pentabromodiphenyl ether] | -109±22% | – | 9.11 ± 4.93 µM | -43±30% | 4.47 µM | 88% | 8 ± 3.19 µM | –
15 | CSC1=N[C@@](C)(c2ccccc2)C(=O)N1Nc1ccccc1 [Fenamidone] | -72±14% | – | 42.8 ± 10.3 µM | -56±23% | 19.9 µM | 59% | 43.3 ± 17.1 µM | –
16 | CC(=O)CC(c1ccc([N+](=O)[O-])cc1)c1c(O)c2ccccc2oc1=O (centres unmarked) [Acenocoumarol] | -96±12% | – | 4.59 ± 1.82 µM | -64±56% | 9.32 µM | 89% | 8.36 ± 1.07 µM | –
17 | CC(C)=CCC1=C(O)C(=O)c2ccccc2C1=O [Lapachol] | -117±24% | 26.1 ± 1.7 µM | – | inactive | 31.6 µM | 113% | – | inactive

Row | Compound | MMP assays efficacy (%) qHTS-HepG2 [1] | IC50 [1, 5] | IC50 [2] | MMP assays efficacy (%) Rat Hepatocytes [3] | IC50 [4] | Emax [4] | IC50 [1, 6] | MMP assays IC50 (µM) Rat Hepatocytes [2]
18 | NC(=O)N1C(=O)/C(=C(\O)c2cccs2)c2cc(Cl)ccc21 [Tenidap] | -111±5% | 12.5 ± 1.19 µM | 21.1 ± 7.88 µM | -96±13% | 15.8 µM | 102% | – | –
19 | Oc1c(Cl)cc(Cl)c2cccnc12 [CHLOROXINE] | -75±22% | – | – | inactive | 9.75 µM | 99% | 10.6 ± 1.22 µM | inactive
20 | C#C[C@]1(O)CC[C@H]2[C@@H]3CCc4cc(O)ccc4[C@H]3CC[C@@]21C [Compound 17alpha-Ethinylestradiol] | -95±9% | – | 18.4 ± 1.5 µM | -42±1% | 15.5 µM | 107% | 19.1 ± 5.99 µM | –
21 | O=C1c2cccc(O)c2C(=O)c2c(O)cccc21 [Danthron] | -78±3% | – | 5.97 ± 5.35 µM | -40±18% | 15.5 µM | 91% | 4.66 ± 1.19 µM | –
22 | C#C[C@]1(OC(C)=O)CC[C@H]2[C@@H]3CCC4=C[C@@H](OC(C)=O)CC[C@@H]4[C@H]3CC[C@@]21C [Ethynodiol diacetate] | -62±16% | – | – | inactive | 21.8 µM | 98% | 15.4 ± 0.84 µM | inactive
23 | COc1cc(/C=C/C(=O)CC(=O)/C=C/c2ccc(O)c(OC)c2)ccc1O [Curcumin] | -103±16% | – | 11.6 ± 9.87 µM | -116±37% | 2.51 µM | 96% | 1.31 ± 1.03 µM | –
24 | Cc1c(O)cccc1C(=O)N[C@@H](CSc1ccccc1)[C@H](O)CN1C[C@H]2CCCC[C@H]2C[C@H]1C(=O)NC(C)(C)C [Nelfinavir mesylate] | -120±19% | 11.9 ± 6.92 µM | 8.68 ± 12.2 µM | -61±48% | 30.8 µM | 97% | – | –
25 | O=S(=O)(Oc1ccc(Cl)cc1)c1ccc(Cl)cc1 [Chlorfenson] | -94±17% | – | 23.7 ± 17.2 µM | -62±24% | 44.7 µM | 88% | 38.8 ± 25.4 µM | –
26 | Oc1c(Cl)cc(Cl)c(Cl)c1Cc1c(O)c(Cl)cc(Cl)c1Cl [Hexachlorophene] | -101±7% | 0.7 ± 0.46 µM | 1 ± 0.74 µM | -103±31% | 0.63 µM | 115% | – | –
27 | O=C(Nc1cccc(Cl)c1)OCC#CCCl [Barban] | -116±9% | – | 36 ± 7.53 µM | -68±37% | 25.1 µM | 87% | 22.5 ± 4.1 µM | –
28 | CCC(C)(C)c1cc(O)c(C(C)(C)CC)cc1O | -121±19% | – | 34.5 ± 5.88 µM | -87±19% | 3.55 µM | 101% | 6.86 ± 3.17 µM | –
29 | IC(I)=C(I)I [Tetraiodoethene] | -105±22% | 5.45 ± 1.27 µM | 22.6 ± 14.4 µM | -115±28% | 6.31 µM | 103% | – | –
30 | N#CC(C#N)=NNc1cccc(Cl)c1 [Carbonyl cyanide chlorophenylhydrazone] | – | – | – | inactive | 0.25 µM | 96% | 0.15 ± 0.04 µM | inactive
31 | COC(=O)Nc1cccc(OC(=O)Nc2cccc(C)c2)c1 [Phenmedipham] | -101±10% | 4.41 ± 2.02 µM | 19.4 ± 9.11 µM | -95±20% | 7.08 µM | 107% | – | –
32 | Cc1cc(C(F)(C(F)(F)F)C(F)(F)F)ccc1NC(=O)c1cccc(I)c1C(=O)NC(C)(C)CS(C)(=O)=O [Flubendiamide] | -87±14% | 18.7 ± 2.59 µM | 12.8 ± 8.15 µM | -80±23% | 25.3 µM | 94% | – | –
33 | C[C@]12CC[C@@H]3c4ccc(O)cc4C[C@@H](CCCCCCCCC[S+]([O-])CCCC(F)(F)C(F)(F)F)[C@H]3[C@@H]1CC[C@@H]2O (some centres unmarked) [Fulvestrant] | -99±7% | 5.86 ± 0.82 µM | 8.84 ± 12 µM | -48±0% | 5.48 µM | 94% | – | –
